The record followed here is ChEMBL document CHEMBL4229568, “Discovery of natural flavonoids as activators of Nrf2-mediated defense system: Structure-activity relationship and inhibition of intracellular oxidative insults” (Bioorg Med Chem, 2018).

Active and inactive are the calls of the source. The rule behind the calls is not given here.

The target in series [1] is T1, Nuclear factor erythroid 2-related factor 2 (Homo sapiens) (UniProt Q16236).
T1 sequence (whole entry): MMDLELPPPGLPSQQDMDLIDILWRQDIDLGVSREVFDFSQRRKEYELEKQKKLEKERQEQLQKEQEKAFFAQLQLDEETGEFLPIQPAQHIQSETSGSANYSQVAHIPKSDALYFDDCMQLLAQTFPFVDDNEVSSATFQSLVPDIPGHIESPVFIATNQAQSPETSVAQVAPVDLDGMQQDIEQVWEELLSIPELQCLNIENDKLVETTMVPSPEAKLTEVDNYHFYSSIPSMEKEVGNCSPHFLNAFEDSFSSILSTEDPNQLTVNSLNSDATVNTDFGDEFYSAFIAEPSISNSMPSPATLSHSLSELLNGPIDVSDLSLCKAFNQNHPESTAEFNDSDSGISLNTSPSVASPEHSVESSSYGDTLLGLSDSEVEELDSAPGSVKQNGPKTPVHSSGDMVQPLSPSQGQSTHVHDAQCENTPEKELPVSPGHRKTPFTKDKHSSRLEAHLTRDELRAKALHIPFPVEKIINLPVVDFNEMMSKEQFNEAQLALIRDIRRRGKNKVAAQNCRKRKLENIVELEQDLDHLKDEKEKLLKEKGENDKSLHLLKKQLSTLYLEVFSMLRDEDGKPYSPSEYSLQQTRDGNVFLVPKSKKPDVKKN
As to the kind of experiment: Induction of Nrf2 translocation from cytoplasm to nucleus in human BEAS2B cells at 6.25 uM after 18 hrs by DAPI staining-based immunofluorescence analysis. Format: cell-based.

For series [2], the target named is T2, Nuclear factor erythroid 2-related factor 2 (Mus musculus) (UniProt Q60795).
T2 sequence (whole entry): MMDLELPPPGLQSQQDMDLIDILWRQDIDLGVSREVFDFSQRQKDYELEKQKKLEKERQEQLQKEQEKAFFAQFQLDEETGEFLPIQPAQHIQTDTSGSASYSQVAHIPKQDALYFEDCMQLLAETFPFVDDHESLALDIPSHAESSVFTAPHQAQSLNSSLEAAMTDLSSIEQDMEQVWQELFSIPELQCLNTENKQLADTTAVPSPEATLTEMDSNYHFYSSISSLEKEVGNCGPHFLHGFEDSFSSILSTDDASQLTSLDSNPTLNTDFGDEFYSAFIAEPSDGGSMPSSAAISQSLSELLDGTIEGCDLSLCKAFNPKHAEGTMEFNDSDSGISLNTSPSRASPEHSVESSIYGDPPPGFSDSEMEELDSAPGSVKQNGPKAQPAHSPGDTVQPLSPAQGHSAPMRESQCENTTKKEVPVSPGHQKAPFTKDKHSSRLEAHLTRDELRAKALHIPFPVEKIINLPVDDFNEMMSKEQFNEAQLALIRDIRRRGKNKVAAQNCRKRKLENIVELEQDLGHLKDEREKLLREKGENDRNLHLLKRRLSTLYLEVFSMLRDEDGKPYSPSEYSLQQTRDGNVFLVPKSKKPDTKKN
Description: Activation of Nrf2 in mouse Heap1c1c7 cells assessed as induction of NAD(P)H:quinone reductase activity at 25 uM relative to control. Format: cell-based.

For a further series, the system named is MDA-MB-231. Description: Cytotoxicity against human MDA-MB-231 cells assessed as decrease in cell viability at 3.12 to 100 uM after 24 hrs by MTT assay. Format: cell-based. Conditions: mda-mb-231, 24 h.
The target of series [3] is T1, Nuclear factor erythroid 2-related factor 2 (Homo sapiens). Description: Activation of Nrf2 in human BEAS2B cells assessed as upregulation of Nrf2 protein expression at 0.31 to 20 uM after 18 hrs by immunoblot analysis. Format: cell-based.
The target is the same in series [4]. As to the kind of experiment: Activation of Nrf2 in human BEAS2B cells assessed as upregulation of NQO1 protein expression at 50 to 100 uM after 18 hrs by immunoblot analysis. Format: cell-based.
The target is the same in series [5]. As to the kind of experiment: Activation of Nrf2 in human BEAS2B cells assessed as upregulation of Nrf2 protein expression at 6.25 uM after 8 to 24 hrs by immunoblot analysis. Format: cell-based.
In series [6] the test system is BEAS-2B. Description: Effect on Keap1 protein levels in human BEAS2B cells at 6.25 uM after 4 to 48 hrs by immunoblot analysis. Format: functional, cell-based. A general note: Immunoblotting shows a protein as a band on a membrane.
For series [7], the system named is BEAS-2B. As to the kind of experiment: Cytoprotective activity in human BEAS2B cells assessed as decrease in As(+3)-induced cell death at 3.12 to 25 uM preincubated for 8 hrs followed by As(+3) challenge and measured after 24 hrs by MTT assay. Format: functional, cell-based. (In general: Tetrazolium dyes change colour on reduction, which living cells bring about.)

Series [8] relates to BEAS-2B. As to the kind of experiment: Cytoprotective activity in human BEAS2B cells assessed as decrease in 5 to 20 uM As(+3)-induced cell death at 6.25 uM preincubated for 8 hrs followed by As(+3) challenge and measured after 24 hrs by MTT assay. In kind it is functional, cell-based.
Series [9] has as its system BEAS-2B. Description: Cytoprotective activity in human BEAS2B cells assessed as decrease in As(+3)-induced cell apoptosis at 6.25 uM preincubated for 8 hrs followed by As(+3) challenge and measured after 24 hrs by annexin V-FITC/propidium iodide staining-based flow cytometric method. In kind it is functional. (In flow cytometry, cells or beads pass a laser one at a time.)

Series [10] has as its target T1, Nuclear factor erythroid 2-related factor 2 (Homo sapiens). Description: Induction of Nrf2 translocation from cytoplasm to nucleus in human BEAS2B cells at 6.25 uM after 18 hrs by immunoblot analysis. In kind it is cell-based.
In series [11] the target is T2, Nuclear factor erythroid 2-related factor 2 (Mus musculus). Description: Activation of Nrf2 in mouse Heap1c1c7 cells assessed as induction of NAD(P)H:quinone reductase activity at 6.25 uM pretreated for 1 hr followed by co-treatment with PKC inhibitor Go6983 for 24 hrs. Format: cell-based.
The target is the same in series [12]. Description: Activation of Nrf2 in mouse Heap1c1c7 cells assessed as induction of NAD(P)H:quinone reductase activity at 6.25 uM pretreated for 1 hr followed by co-treatment with PKC inhibitor Ro-31-8220 for 24 hrs. Format: cell-based.
Series [13] shares this target. As to the kind of experiment: Activation of Nrf2 in mouse Heap1c1c7 cells assessed as induction of NAD(P)H:quinone reductase activity at 6.25 uM pretreated for 1 hr followed by co-treatment with PI3K inhibitor wortmannin for 24 hrs. Format: cell-based.
Series [14] addresses T1, Nuclear factor erythroid 2-related factor 2 (Homo sapiens). As to the kind of experiment: Activation of Nrf2 in human BEAS2B cells assessed as upregulation of Nrf2 protein expression at 6.25 uM pretreated for 1 hr followed by co-treatment with p38 MAPK inhibitor SB203580 for 18 hrs by immunoblot analysis. In kind it is cell-based.
Series [15] has the same target. As to the kind of experiment: Activation of Nrf2 in human BEAS2B cells assessed as upregulation of Nrf2 protein expression at 6.25 uM pretreated for 1 hr followed by co-treatment with PKC inhibitor Go6983 for 18 hrs by immunoblot analysis. Format: cell-based.
For series [16] the target is unchanged. As to the kind of experiment: Activation of Nrf2 in human BEAS2B cells assessed as upregulation of NQO1 protein expression at 6.25 uM pretreated for 1 hr followed by co-treatment with MEK1/2 inhibitor PD98059 for 18 hrs by immunoblot analysis. Format: cell-based.
The target is the same in series [17]. Description: Activation of Nrf2 in human BEAS2B cells assessed as upregulation of NQO1 protein expression at 6.25 uM pretreated for 1 hr followed by co-treatment with PKC inhibitor Ro-31-8220 for 18 hrs by immunoblot analysis. In kind it is cell-based.
Series [18] shares this target. As to the kind of experiment: Activation of Nrf2 in human BEAS2B cells assessed as suppression of As(+3)-induced overproduction of reactive oxygen species at 6.25 uM pretreated for 8 hrs followed by As(+3) challenge and measured after 10 hrs. In kind it is cell-based.

For the molecule `COc1ccc(-c2coc3cc(OC)cc(O)c3c2=O)cc1` [4',7-DIMETHOXY-5-HYDROXYGENISTEIN], the result (in series [1]; in [5]; in the series with BEAS-2B [7]; in the series on BEAS-2B [8]; in the series on BEAS-2B [9]; in series [10]) was Active. Further, the outcome in series [13] and in series [18] was Active. The fold change (FC) in series [2] worked out at 2.08. Besides, the Activity entry was “Non-Toxic” with MDA-MB-231 and “Dose-dependent effect” in [3]. The result (in series [4]; with BEAS-2B [6]; in series [11]; in series [12]; in [14]; in [15]) was inactive. In addition, the outcome in series [16] and in series [17] was inactive.
